According to patent US7534780B2, “Estradiol prodrugs” (Bayer Schering Pharma Aktiengesellschaft, priority 2004, dated 2009):

How the values were obtained:
[1] = system: ovariectomized rats; assay: Induction of uterus growth in ovariectomized rats, oral treatment days 1-3; type: in vivo, rat; conditions: oral administration
Protocol: (§1) Adult Wistar rats were ovariectomized 14 days after this operation for the study of the substances according to the invention. A treatment extended over 3 days (days 1-3); on day 4 after the animals were sacrificed, the recovery of plasma for hormone-analytical and clinical-chemical determinations and the determination of uterus weights were carried out. In satellite tests, correspondingly conditioned animals were sacrificed and samples were taken of their blood after one-time treatment and at other times (see Table 1 for determining estradiol and estrone in the plasma).
In FIG. 1, the induction of uterus growth in ovariectomized rats is depicted. The treatment is carried out orally from day 1 to the 3rd day, and then the autopsy is carried out on the 4th day. A maximum uterus growth predominantly at 30 μg/animal/day is shown.

[2] = system: angiotensinogen; assay: Liver estrogeneity (marker angiotensinogen) in ovariectomized rats; type: in vivo, rat; conditions: oral administration
Protocol: as §1

[3] = system: erythrocytes; assay: Determination of the erythrocyte/plasma ratio of the substance; type: in vitro ADME; conditions: fresh blood; tracer use for compound 1 or 9, otherwise non-radioactive
Protocol: Determination of the substance concentration in the erythrocyte/plasma ratio (tracer use):
Fresh blood is incubated with a defined amount of tracer compound of compound 1 or 9. After the erythrocytes are separated, the measured radioactivity in the erythrocytes is put into a ratio with the measured radioactivity in the plasma.
Determination of the erythrocyte/plasma ratio (non-radioactive):
Freshly-obtained, heparinized blood is mixed with a defined amount of test substance. The concentration in the plasma obtained therefrom is measured. The erythrocyte/plasma ratio is calculated from the measured concentration of the total substance in the plasma and the concentration that is used.

[4] = biological target: Human Carboanhydrase I (Homo sapiens, UniProt P00915); assay: Inhibition of carboanhydrase I (CO2 hydration); type: biochemical; conditions: read-out: CAI IC50
Protocol: Test preparation: A constant CO2 stream is directed by a buffer that was mixed with carboanhydrase I. The time that is required to reduce the pH within defined limits is a measuring parameter. This parameter reflects the formation of H2CO3 in the medium. IC50 inhibiting values are determined by test substances being pipetted into the test preparation.

[5] = system: erythrocytes; assay: Displacement of estradiol-3-sulfamate from the erythrocyte bond (relative binding affinity); design: species or system human; conditions: for RBA to Erythrocytes: human blood, displacement of 14C-labeled estradiol sulfamate; for bond to erythrocytes (in words): m-substituted versus p-substituted compounds
Protocol: The SO2—NTH2 group of the substances according to the invention can result in a concentration in erythrocytes by binding to carboanhydrases. The displacement of estradiol-3-sulfamate from the erythrocyte bond by test substances is measured.
Test preparation: Human blood is mixed with a mixture that consists of ^14C-labeled and unlabeled estradiol sulfamate. The erythrocytes are saturated at the selected working point, and the distribution in plasma/erythrocytes is 40:60. A second blood sample is mixed with a mixture that consists of ^14C-labeled estradiol sulfamate and unlabeled test substance. The relative binding affinity is calculated from the proportion of ^14C-labeled estradiol sulfamate in plasma: higher proportion=strong displacement of ^14C-estradiol sulfamate from the erythrocytes by the test substance=high binding affinity of the test substances to the erythrocytes.

[6] = Estradiol (E2) and estrone (E1) levels in plasma of rats after one-time oral administration; type: in vivo, rat
Protocol: as §1

Human Carboanhydrase I, sequence (P00915 whole entry): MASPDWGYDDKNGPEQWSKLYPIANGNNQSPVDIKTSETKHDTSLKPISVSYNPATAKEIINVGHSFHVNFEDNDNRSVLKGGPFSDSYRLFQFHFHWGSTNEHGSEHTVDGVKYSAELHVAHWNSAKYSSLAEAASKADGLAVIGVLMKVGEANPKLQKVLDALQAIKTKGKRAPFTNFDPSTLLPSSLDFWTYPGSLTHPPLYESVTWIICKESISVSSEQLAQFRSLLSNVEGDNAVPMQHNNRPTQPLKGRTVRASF

Structure (SMILES)	estrogenic activity in the uterus / uterus growth (in words) [1]	hepatic estrogenic action, marker angiotensinogen (in words) [2]	Distribution Ratio of the Substance to Erythrocytes/Plasma [3]	IC50 [4] [nM]	RBA to Erythrocytes [5]	bond to erythrocytes (in words) [5]	oral availability and estrogeneity compared with the p-substituted compound (in words) [6]	increase of mother estrogen (estradiol) on oral administration (in words) ([6]; rats)
C[C@]12CC[C@@H]3c4ccc(O)cc4CC[C@H]3[C@@H]1CC[C@@H]2OC(=O)c1ccc(S(N)(=O)=O)cc1 [Compound 1, 3-Hydroxyestra-1,3,5(10)-trien-17β-yl 4′-sulfamoylbenzoate]	superior action on the uterus growth	much lesser action on estrogen-modulated liver functions	7.7	190	32	very strong bond	–	–
C[C@]12CC[C@@H]3c4ccc(O)cc4CC[C@H]3[C@@H]1CC[C@@H]2OC(=O)c1cc(S(N)(=O)=O)c(Cl)cc1Cl [Compound 7, 3-Hydroxyestra-1,3,5(10)-trien-17β-yl 2′,4′-dichloro-5′-sulfamoylbenzoate]	–	–	5	500	0.40	weaker bonds	–	–
C[C@]12CC[C@@H]3c4ccc(O)cc4CC[C@H]3[C@@H]1CC[C@@H]2OC(=O)c1cccc(S(N)(=O)=O)c1 [Compound 9, 3-Hydroxyestra-1,3,5(10)-trien-17β-yl 3′-sulfamoylbenzoate]	enhanced in comparison to estradiol	–	4	380	0.18	weaker bonds	higher oral availability and estrogeneity	very strong increase
C[C@]12CC[C@@H]3c4ccc(OS(N)(=O)=O)cc4CC[C@H]3[C@@H]1CC[C@@H]2O [Estradiol-3-sulfamate, reference compound]	–	–	49	157 ± 10.6	100	–	–	–
C#C[C@]1(O)CC[C@H]2[C@@H]3CCc4cc(O)ccc4[C@H]3CC[C@@]21C [ethinyl estradiol, 17α-ethinyl estradiol, reference compound]	–	significant increase in angiotensinogen	–	–	–	–	–	–
